Laboratory results as given in US12697328B2, “Methods for treating metastasis with cathepsin C inhibitors” (Shanghai Institute of Nutrition and Health, Chinese Academy …, priority 2020, dated 2026).

Columns and labels:
[1] = test system: CTSC-overexpressing AT3 cancer cells; test: Brensocatib treatment of mice after orthotopic injection of CTSC-overexpressing AT3 cancer cells; type: in vivo, C57/BL6 mice; settings: brensocatib 5 mg/kg orally twice daily
Description: Female BALB/c and athymic mice aged 6-10 weeks were used in all animal experiments. […] For EdU labeling assays, nude mice were intravenously injected with 2×10^5 cancer cells, followed by intraperitoneal (i.p.) injection of 100 ng/mouse EdU (ThermoFisher, C10640) 24 h before lung harvest. […] For Sivelestat or DNase I treatment, mice were i.p. injected with Sivelestat (50 mg/kg) or DNase I (5 mg/kg) 2 h before cancer cell injection, followed by daily injection of the reagents for 9 days, and then maintenance shots twice a week. For GSK484 treatment, mice were treated with GSK484 (20 mg/kg, i.p. daily shots for 20 days from day 7, and then maintenance shots every two days) following orthotopic injection of AT3 or 4T07 cells. For IL-1b blocking or IL6R/CCR1 inhibition assays, mice were orthotopically inoculated with 5×10^4 AT3 and treated with i.p. administration of IgG or the IL-1β blocking antibody (100 μg per mouse), or the IL6R blocking antibody (100 μg per mouse) and the CCR1 inhibitor BX471 (20 mg/kg), every two days from day 7 until the mice were sacrificed. For brensocatib treatment, BALB/c mice were orthotopically inoculated with 1×10^5 4T1 cells, and C57/BL6 mice were orthotopically inoculated with 2×10^5 AT3. Vehicle controls (0.5% HPMC, 0.1% Tween 80 in 0.1 M citrate buffer, pH 3) and brensocatib (5 mg/kg) were administered orally twice daily until the mice were sacrificed. Orthotopic tumors were surgically removed at the size of about 1 cm^3. […] For TSP-1 degradation assays, mice were i.p. injected with GSK484 (20 mg/kg) 2 h before cancer cell injection and followed by daily treatment. Then, the lungs were perfused with 50 ml of pre-chilled PBS through the right ventricle until they were cleared of blood at 72 h post injection of 3×10^6 AT3 or 4T07 cells. BLI was acquired with NightOWL II LB983 Imaging System (Bert-hold) and IVIS Spectrum CT (PerkinElmer). All animal studies were conducted according to the guidelines for the care and use of laboratory animals and were approved by the Institutional Animal Care and Use Committee of Shanghai Institute of Nutrition and Health.

colon cancer cells SW480 = test: NET-promoted tumor sphere formation, colon cancer; type: cell-based; settings: neutrophil medium, CM with or without brensocatib, FIG. 11K
Description: To test the therapeutic effects of brensocatib in different cancer types in vitro, the ability of brensocatib to inhibit NET-promoted tumor sphere formation is investigated. The neutrophils are cultured with conditioned medium from tumor cells of colon cancer, liver cancer, lung cancer, gastric cancer and pancreatic cancer with or without brensocatib treatment to activate NETosis, and then the neutrophil medium was used in tumor sphere formation of these cancer cells to analyze the effect of neutrophil medium to facilitate tumor cell growth. The amount of tumorsphere in each sample is then determined by imaging.

Cn1c(=O)oc2ccc(-c3ccc(C[C@@H](C#N)NC(=O)[C@@H]4CNCCCO4)cc3)cc21 [brensocatib, (2S)—N-{(1S)-1-cyano-2-[4-(3-methyl-2-oxo-2,3-dihydro-1,3-benzoxazol-5-yl)phenyl]ethyl}-1,4-oxazepane-2-carboxamide]
survival rate ([1]; FIG. 10J): significant increase | circulating levels of IL-1β ([1]; FIG. 10K): decrease | circulating NETs ([1]; FIGS. 10G-I): Decreases | lung metastases ([1]; FIGS. 10G-I): Decreases | lung metastatic nodule formation ([1]; FIGS. 10G-I): Decreases | neutrophil migration ([1]; FIGS. 10G-I): Decreases | NET-promoted tumor sphere formation (in vitro tumor growth) (colon cancer cells SW480): inhibit in vitro tumor growth
